Here are results for 45 compounds from ChEMBL document CHEMBL4219256, “Design, Synthesis, and Biological Evaluation of 4-Quinoline Carboxylic Acids as Inhibitors of Dihydroorotate Dehydrogenase” (J Med Chem, 2018).

For one assay, the system named is MIA PaCa-2. Briefly: Antiproliferative activity against human MIAPaCa2 cells after 72 hrs by MTT assay. The class given is functional, cell-based. Background: Tetrazolium assays rely on reduction of a dye to a coloured formazan, in cell work by metabolically active cells.
Another assay relates to HCT-116. The experiment in a line: Antiproliferative activity against human HCT116 cells over-expressing DHODH after 72 hrs by MTT assay. It counts as functional, cell-based.
The subject of the next assay is HL-60. The experiment in a line: Antiproliferative activity against human HL60 cells after 72 hrs by MTT assay.
Assay [1] has as its target Dihydroorotate dehydrogenase (quinone), mitochondrial (Homo sapiens, UniProt Q02127).
Description: Inhibition of DHODH (unknown origin) expressed in Escherichia coli Rosetta2(DE3) assessed as reduction of DCIP using dihydroorotate as substrate preincubated for 30 mins followed by substrate addition in presence of CoQ10 measured after 1 hr

Chain of Dihydroorotate dehydrogenase (quinone), mitochondrial (Q02127 whole entry): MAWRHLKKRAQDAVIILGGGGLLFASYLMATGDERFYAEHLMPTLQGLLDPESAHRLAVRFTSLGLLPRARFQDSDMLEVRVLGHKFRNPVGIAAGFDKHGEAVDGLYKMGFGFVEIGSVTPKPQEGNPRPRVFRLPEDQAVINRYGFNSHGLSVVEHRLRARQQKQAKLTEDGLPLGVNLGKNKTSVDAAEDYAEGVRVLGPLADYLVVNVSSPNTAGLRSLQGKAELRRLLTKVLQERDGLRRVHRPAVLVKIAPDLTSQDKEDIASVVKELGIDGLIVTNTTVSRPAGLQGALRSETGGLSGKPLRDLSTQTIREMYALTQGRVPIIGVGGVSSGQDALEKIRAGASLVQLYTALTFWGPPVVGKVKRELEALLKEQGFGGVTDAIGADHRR

What is called IC50 is the midpoint of a concentration-inhibition curve. A low value points to higher potency. As to `O=C(O)c1cc(-c2ccc(-c3ccccc3)cc2)nc2ccccc12`, the IC50 in the assay with MIA PaCa-2 stood at 2.16 µM; in the assay with HCT-116 it was 0.344 µM; in the assay on HL-60 it was 3.51 µM.

As to `Cc1c(-c2ccc(-c3ccccc3)cc2)nc2ccccc2c1C(=O)O`, the IC50 in the assay on MIA PaCa-2 is 5.29 µM; with HCT-116, 8.51 µM.

In the assay on HCT-116, `O=C(O)c1cc(-c2ccc(-c3ccc(F)nc3)cc2)nc2ccccc12` returned an IC50 of 16.8 µM.

In the case of `CC(C)Cc1ccc(-c2cc(C(=O)O)c3ccccc3n2)cc1`, the half-inhibitory concentration (IC50) in the assay on MIA PaCa-2 is 14.5 µM.

Regarding `Cc1c(-c2ccc(-c3cccnc3F)cc2)nc2ccc(Cl)cc2c1C(=O)O`, the IC50 in the assay on MIA PaCa-2 was 14.7 µM; in the assay with HCT-116, 5.43 µM.

For `Cc1ccc2nc(-c3ccc(-c4cccnc4Cl)cc3)c(C)c(C(=O)O)c2c1`, the figures for the IC50 in the assay on MIA PaCa-2 and with HCT-116 were 8.29 µM and 11.1 µM, respectively.

As for `Cc1c(-c2ccc(-c3cccnc3Cl)cc2)nc2ccc(Cl)cc2c1C(=O)O`, the IC50 in the assay with MIA PaCa-2 was 4.73 µM; in the assay with HCT-116 it was 4.36 µM.

For the compound `O=C(O)c1cc(-c2ccc(-c3cccnc3Cl)cc2)nc2ccccc12`, the results for the half-inhibitory concentration (IC50) in the assay with MIA PaCa-2 and with HL-60 were 7.13 µM and 7.12 µM, respectively.

Turning to `COC(=O)c1cc(-c2ccc(-c3ccccc3)cc2)nc2ccccc12`, the IC50 in the assay on MIA PaCa-2 is 11.5 µM; with HCT-116, 6.9 µM; in assay [1] it was over 200000 nM.

For the compound `Cc1c(-c2ccc(-c3cccnc3F)cc2)nc2ccccc2c1C(=O)O`, the IC50 in the assay with MIA PaCa-2 worked out at 13.4 µM; with HCT-116 it was 21.3 µM.

For the compound `O=C(O)c1cc(-c2ccc(-c3cccnc3F)cc2)nc2ccccc12`, the IC50 worked out at 32.1 µM with MIA PaCa-2, 11.2 µM with HCT-116 and 1420 nM in assay [1].

Take `O=C(O)c1cc(-c2ccc(-c3ccccn3)cc2)nc2ccccc12`: the figures for the IC50 in the assay with MIA PaCa-2 and in the assay on HCT-116 were 49.3 µM and 39.6 µM, respectively.

For `Cc1ccc(-c2ccc(-c3nc4ccc(F)cc4c(C(=O)O)c3C)cc2)c(F)n1`, the figures for the IC50 with MIA PaCa-2 and in the assay on HCT-116 were 33.8 µM and 33.7 µM, respectively.

For the compound `Cc1c(-c2ccc(-c3cccnc3Cl)cc2)nc2ccccc2c1C(=O)O`, the results for the IC50 with MIA PaCa-2, in the assay on HCT-116 and in the assay with HL-60 were 8.64 µM, 6.44 µM and 15.3 µM, respectively.

On to `Cc1ccc(-c2ccc(-c3cc(C(=O)O)c4ccccc4n3)cc2)c(Cl)n1`, for which the IC50 worked out at 14.2 µM with MIA PaCa-2 and 5.13 µM in the assay on HCT-116.

Turning to `O=C(O)c1cc(-c2ccc(-c3cccnc3)cc2)nc2ccccc12`, the IC50 was 32.8 µM with MIA PaCa-2 and 20.9 µM in the assay on HCT-116.

Take `O=C(O)c1cc(-c2ccc(-c3ccncc3)cc2)nc2ccccc12`: the IC50 came to 68.1 µM in the assay on MIA PaCa-2 and 33.6 µM in the assay on HCT-116.

`O=C(O)c1cc(-c2ccc(N3CCCCC3)cc2)nc2ccccc12`: the IC50 with MIA PaCa-2 is 16.7 µM; with HCT-116 it was 7.23 µM.

In the case of `Cc1ccc(-c2ccc(-c3nc4ccccc4c(C(=O)O)c3C)cc2)c(F)n1`, the IC50 with MIA PaCa-2 is 31.6 µM; in the assay with HCT-116 it was 23.9 µM.

On to `O=C(O)c1cc(-c2ccc(N3CCOCC3)cc2)nc2ccccc12`, for which the IC50 with MIA PaCa-2 is over 100 µM; with HCT-116, over 100 µM; in assay [1], over 200000 nM.

`Cc1ncccc1-c1ccc(-c2cc(C(=O)O)c3ccccc3n2)cc1`: the IC50 with MIA PaCa-2 is 18.2 µM; in the assay on HL-60, 11.6 µM.

In the case of `Cc1ccc(-c2ccc(-c3nc4ccccc4c(C(=O)O)c3C)cc2)c(Cl)n1`, the half-maximal inhibitory concentration (IC50) came out at 7.7 µM with MIA PaCa-2 and 15.5 µM in the assay on HCT-116.

Take `COC(=O)c1cc(-c2ccc(-c3cnccc3C(F)(F)F)cc2)nc2ccccc12`: the IC50 in assay [1] was over 50000 nM.

Regarding `O=C(O)c1cc(-c2ccc(-c3cncnc3)cc2)nc2ccccc12`, the IC50 in the assay with MIA PaCa-2 was over 50 µM; with HCT-116 it was over 50 µM; in assay [1], over 200000 nM.

Consider `Cc1ccc(-c2ccc(-c3nc4cnccc4c(C(=O)O)c3C)cc2)c(Cl)n1`, for which the IC50 is over 100 µM with MIA PaCa-2, over 100 µM with HCT-116 and 5260 nM in assay [1].

With `O=C(O)c1cc(-c2ccc(-c3cccnc3C(F)(F)F)cc2)nc2ccccc12`, the IC50 is 8.84 µM in the assay with MIA PaCa-2 and 4.63 µM in the assay with HCT-116.

Turning to `Cc1c(-c2ccc(-c3ccccc3)cc2)nc2cnc(C(F)(F)F)cc2c1C(=O)O`, the IC50 in the assay on MIA PaCa-2 amounted to 2.18 µM; in the assay on HCT-116, 0.88 µM; in the assay with HL-60 it was 2.67 µM; in assay [1], 21.2 nM.

In the case of `Cc1ccncc1-c1ccc(-c2cc(C(=O)O)c3ccccc3n2)cc1`, the IC50 in the assay on MIA PaCa-2 was determined as 17.9 µM; in the assay on HCT-116 it was 10.8 µM.

As for `O=C(O)c1cc(-c2ccc(-c3cnccc3C(F)(F)F)cc2)nc2ccccc12`, the values for the half-maximal inhibitory concentration (IC50) in the assay on MIA PaCa-2 and in the assay on HCT-116 were 8.71 µM and 3.87 µM, respectively.

Regarding `Cc1c(-c2ccc(-c3ccccc3F)cc2)nc2cnc(C(F)(F)F)cc2c1C(=O)O`, the IC50 in the assay on MIA PaCa-2 was found to be 0.454 µM; in the assay with HCT-116 it was 0.333 µM; in the assay with HL-60, 0.401 µM; in assay [1] it was 11.8 nM.

With `Cc1c(-c2ccc(-c3cccnc3Cl)cc2)nc2cnccc2c1C(=O)O`, the values for the IC50 (in the assay with MIA PaCa-2; in the assay on HCT-116; in assay [1]) were over 100 µM, over 100 µM and 259 nM, respectively.

For `Cc1ccc(-c2ccc(-c3nc4ccc(Cl)cc4c(C(=O)O)c3C)cc2)c(Cl)n1`, the IC50 in the assay with MIA PaCa-2 was 7.56 µM; in the assay with HCT-116, 2.71 µM.

Turning to `O=C(O)c1cc(-c2ccc(-c3ncccn3)cc2)nc2ccccc12`, the IC50 is over 50 µM with MIA PaCa-2, over 50 µM with HCT-116 and over 200000 nM in assay [1].

Consider `COC(=O)c1cc(-c2ccc(N3CCCCC3)cc2)nc2ccccc12`, for which the figures for the IC50 (with MIA PaCa-2; in the assay on HCT-116; in assay [1]) were 31.8 µM, 38.2 µM and over 200000 nM, respectively.

Turning to `Cc1c(-c2ccc(-c3ccccc3)cc2)nc2ccncc2c1C(=O)O`, the IC50 in the assay with MIA PaCa-2 turned out to be 28.1 µM; with HCT-116, 26.7 µM; in assay [1], 2790 nM.

In the case of `Cc1c(-c2ccc(-c3ccccc3)cc2)nc2ncccc2c1C(=O)O`, the IC50 is over 100 µM in the assay on MIA PaCa-2, over 100 µM with HCT-116 and 1220 nM in assay [1].

As to `COc1ncccc1-c1ccc(-c2cc(C(=O)O)c3ccccc3n2)cc1`, the IC50 in the assay with MIA PaCa-2 was 13.6 µM.

For the compound `Cc1c(-c2ccc(-c3cccnc3Cl)cc2)nc2cnc(C(F)(F)F)cc2c1C(=O)O`, the IC50 with MIA PaCa-2 was 21.5 µM; in the assay on HCT-116, 25.7 µM; in assay [1], 201 nM.

For the compound `COC(=O)c1cc(-c2ccc(C3CCCCC3)cc2)nc2ccccc12`, the IC50 with MIA PaCa-2 is 37.1 µM; in the assay on HCT-116, 42.6 µM; in assay [1], over 200000 nM.

Consider `COC(=O)c1cc(-c2ccc(-c3cccnc3)cc2)nc2ccccc12`, for which the IC50 with MIA PaCa-2 was 6.43 µM; in the assay with HCT-116 it was 6.15 µM; in assay [1], over 200000 nM.

With `Cc1c(-c2ccc(-c3cccnc3F)cc2)nc2ccc(F)cc2c1C(=O)O`, the IC50 with MIA PaCa-2 came to 23.6 µM; in the assay with HCT-116, 5.71 µM.

In the case of `Cc1ccc(-c2ccc(-c3nc4ccc(F)cc4c(C(=O)O)c3C)cc2)c(Cl)n1`, the results for the IC50 with MIA PaCa-2, with HCT-116 and with HL-60 were 6.57 µM, 1.98 µM and 4.81 µM, respectively.

Turning to `CC(C)c1ccc(-c2cc(C(=O)O)c3ccccc3n2)cc1`, the figures for the IC50 in the assay with MIA PaCa-2 and in the assay with HCT-116 were 24.2 µM and 19.1 µM, respectively.

On to `COc1ccccc1-c1ccc(-c2cc(C(=O)O)c3ccccc3n2)cc1`, for which the values for the IC50 with MIA PaCa-2 and in the assay on HCT-116 were 7.45 µM and 2.85 µM, respectively.

For the compound `O=C(O)c1cc(-c2ccccc2)nc2ccccc12` [CINCHOPHEN], the values for the IC50 (in the assay with MIA PaCa-2; in the assay with HCT-116; in assay [1]) were over 100 µM, over 100 µM and 144000 nM, respectively.
